Test results: PubChem BioAssay AID1963444 (Molecular Pharmacology Branch, DTP, NCI, 2024)

Tested on: HSSY-II complex spheroid growth, percent test/control
Test: Anticancer human tumor HSSY-II cell line growth inhibition [Asc];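 note: spheroids exposed to drug for 7 days before reading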
Conditions: for IC50: curve of first compound; for viability, T/C: stronger effect = lower value
Protocol: Multicellular complex tumor spheroid response to apoptosis pathway targeting inhibitors Alrizomadlin, Pelcitoclax, and Dasminapant in combination with a variety of drugs and investigational agents in selected tumor cell lines
The MDM2 inhibitor alrizomadlin, the Bcl-2/Bcl-xL inhibitor pelcitoclax, and the IAPs inhibitor dasminapant were evaluated both individually and in combination with standard of care and investigational anticancer small molecules within a complex spheroid model of solid tumors. . Complex spheroids include a stromal component modeled by human endothelial cells (HUVEC) and fibroblasts modeled by human mesenchymal stem cells (MSCs). The concentration ranges selected for each drug and investigational agent were based upon clinically achievable concentrations if the clinical Cmax of the agent was known.
Compounds. The drugs and investigational agents: alrizomadlin (APG-115; NSC831270), pelcitoclax (APG-1252; NSC835773), dasminapant (APG-1387;NSC834197), TAK-243 (NSC785004), copanlisib (NSC809693), olaparib (NSC753686), talazoparib (NSC767125), cobimetinib (NSC 768068), eltanexor (KPT-8602, NSC 794443), abemaciclib (NSC 768073), sotorasib (NSC818433), adagrasib (NSC 831453), MRTX-1133 (NSC 836407), Iadademestat (ORY1001, NSC 806812), and RMC-4630 (NSC839698), were obtained from the NCI Developmental Therapeutics Program Chemical Repository. The FDA-approved anticancer drug set is available from the Developmental Therapeutics Program at https://dtp.cancer.gov/organization/dscb/obtaining/available plates.htm. […] The stock solutions were prepared in dimethyl sulfoxide (DMSO, Sigma-Aldrich, St. Louis, MO, cat. D2650) at 800-fold the tested concentration and stored at -70 degrees C prior to their use. All drugs and investigational agents were tested over a range starting from a high concentration at or near the clinical Cmax and decreasing in half-log increments. If the clinical Cmax for an agent had not been determined, the highest concentration tested was 10 microM.
The patient-derived cancer (PDC) cell lines include five colon adenocarcinomas: 186277-243-T-J2-PDC, 616215-338-R-J1-PDC, 439559-082-T-J2-PDC, 463943-066-T-J2-PDC, and 519858-162-T-J1-PDC; three pancreatic carcinomas: 323965-272-R-J2-PDC, 521955-158-R6-J3-PDC, and 521955-158-R2-J5-PDC; two uterine sarcomas: 327498-152-R-J2-PDC and 993429-296-R-J1-PDC; two rhabdomyosarcomas: 755483-174-R-J1-PDC and 772245-204-R-J1-PDC; two soft tissue sarcomas: 126254-015-R-J1-PDC and 494315-158-R-J1-PDC; two malignant fibrous histiocytomas: 317291-083-R-J1-PDC and 596521-263-R-J1-PDC; two breast carcinomas: 171881-019-R-J1-PDC and 885512-296-R-J2-PDC; and one ovarian carcinoma: 6556581-035-R-J-PDC were obtained from the NCI PDMR, (https://pdmr.cancer.gov). The established cell lines HSSY-2 synovial sarcoma (RRID:CVCL 8719), SYO-1 synovial sarcoma (RRID:CVCL_7146), MPNST malignant peripheral neural sheath tumor were obtained from the Sloan Kettering Institute. The following established cell lines were purchased from the American Type Culture Collection (ATCC, Manassas, VA), Sor the received from the NCI repository:, PANC-1 pancreatic carcinoma (CRL-1469, RRID:CVCL_0480), OVCAR-5 ovarian carcinoma (RRID:CVCL_1628), OVCAR-8 ovarian carcinoma (RRID:CVCL_1629), , MCF-7 breast carcinoma (CRL-12584, RRID:CVCL_0031), MDA-MB-231 breast carcinoma (CRL-12532, RRID:CVCL_0062), NCI-H1876 small cell lung carcinoma (CRL-5902, RRID:CVCL_1503), NCI-H510A small cell lung carcinoma (HTB-184, RRID:CVCL_1565), NCI-H1417 (CRL-5869, RRID:CVCL_1469), and NCI-H196 small cell lung carcinoma (CRL-5823, RRID:CVCL_1509). Dr. Peter Houghton (Greehey Children's Cancer Research Institute, University of Texas Health Science Center, San Antonio, TX) provided Rh-18 rhabdomyosarcoma (RRID:CVCL_1659). Pooled donor human umbilical vein endothelial cells (HUVEC, Lonza, cat. CC-2519) and human mesenchymal stem cells (hMSC, Lonza, cat. PT-2501) were purchased from Lonza (Walkersville, MD).
Cell Culture. […]

[1] = second compound 0.03 µM, first compound 0.00316 µM
[2] = second compound 0.03 µM, first compound 0.01 µM
[3] = second compound 0.03 µM, first compound 0.0316 µM
[4] = second compound 0.03 µM, first compound 0.1 µM
[5] = second compound 0.0949 µM, first compound 0.00316 µM
[6] = second compound 0.0949 µM, first compound 0.01 µM
[7] = second compound 0.0949 µM, first compound 0.0316 µM
[8] = second compound 0.0949 µM, first compound 0.1 µM
[9] = second compound 0.3 µM, first compound 0.00316 µM
[10] = second compound 0.3 µM, first compound 0.01 µM
[11] = second compound 0.3 µM, first compound 0.0316 µM
[12] = second compound 0.3 µM, first compound 0.1 µM
[13] = second compound 0.949 µM, first compound 0.00316 µM
[14] = second compound 0.949 µM, first compound 0.01 µM
[15] = second compound 0.949 µM, first compound 0.0316 µM
[16] = second compound 0.949 µM, first compound 0.1 µM
[17] = second compound 3 µM, first compound 0.00316 µM
[18] = second compound 3 µM, first compound 0.01 µM
[19] = second compound 3 µM, first compound 0.0316 µM
[20] = second compound 3 µM, first compound 0.1 µM

Structure (SMILES): CCN1CCN(Cc2ccc(Nc3ncc(F)c(-c4cc(F)c5nc(C)n(C(C)C)c5c4)n3)nc2)CC1 + CCN1C(C(=O)NC23CCC(C(=O)O)(CC2)CC3)C(c2cccc(Cl)c2F)C2(C(=O)Nc3cc(Cl)ccc32)C12CCCCC2
- IC50 (second compound 0.03 µM): 83.5 nM
- IC50 (second compound 0.0949 µM): 16.8 nM
- IC50 (second compound 0.3 µM): < 3.16 nM
- IC50 (second compound 0.949 µM): < 3.16 nM
- IC50 (second compound 3 µM): < 3.16 nM
- viability, T/C [1]: 90.3%
- viability, T/C [2]: 72.4%
- viability, T/C [3]: 58.7%
- viability, T/C [4]: 49.1%
- viability, T/C (second compound 0.03 µM, first compound 0.316 µM): 39.5%
- viability, T/C (second compound 0.03 µM, first compound 1 µM): 22.7%
- viability, T/C [5]: 63%
- viability, T/C [6]: 57.5%
- viability, T/C [7]: 41.1%
- viability, T/C [8]: 34%
- viability, T/C (second compound 0.0949 µM, first compound 0.316 µM): 26.1%
- viability, T/C (second compound 0.0949 µM, first compound 1 µM): 12.1%
- viability, T/C [9]: 27.4%
- viability, T/C [10]: 22.6%
- viability, T/C [11]: 24.6%
- viability, T/C [12]: 19.2%
- viability, T/C (second compound 0.3 µM, first compound 0.316 µM): 13.8%
- viability, T/C (second compound 0.3 µM, first compound 1 µM): 5.79%
- viability, T/C [13]: 8.49%
- viability, T/C [14]: 8.58%
- viability, T/C [15]: 8.12%
- viability, T/C [16]: 6.47%
- viability, T/C (second compound 0.949 µM, first compound 0.316 µM): 6.16%
- viability, T/C (second compound 0.949 µM, first compound 1 µM): 3.21%
- viability, T/C [17]: 2.42%
- viability, T/C [18]: 2.83%
- viability, T/C [19]: 2.95%
- viability, T/C [20]: 2.31%
- viability, T/C (second compound 3 µM, first compound 0.316 µM): 2.12%
- viability, T/C (second compound 3 µM, first compound 1 µM): 4.53%

Structure (SMILES): NC(=O)C(=Cn1cnc(-c2cc(C(F)(F)F)cc(C(F)(F)F)c2)n1)c1cncnc1 + CCN1C(C(=O)NC23CCC(C(=O)O)(CC2)CC3)C(c2cccc(Cl)c2F)C2(C(=O)Nc3cc(Cl)ccc32)C12CCCCC2
- IC50 (second compound 0.03 µM): 10.5 nM
- IC50 (second compound 0.0949 µM): 3.06 nM
- IC50 (second compound 0.3 µM): < 0.949 nM
- IC50 (second compound 0.949 µM): < 0.949 nM
- IC50 (second compound 3 µM): < 0.949 nM
- viability, T/C (second compound 0.03 µM, first compound 0.000949 µM): 97.5%
- viability, T/C (second compound 0.03 µM, first compound 0.003 µM): 76%
- viability, T/C (second compound 0.03 µM, first compound 0.00949 µM): 51.1%
- viability, T/C (second compound 0.03 µM, first compound 0.03 µM): 31.9%
- viability, T/C (second compound 0.03 µM, first compound 0.0949 µM): 7.28%
- viability, T/C (second compound 0.03 µM, first compound 0.3 µM): 0.44%
- viability, T/C (second compound 0.0949 µM, first compound 0.000949 µM): 63.5%
- viability, T/C (second compound 0.0949 µM, first compound 0.003 µM): 52.7%
- viability, T/C (second compound 0.0949 µM, first compound 0.00949 µM): 26.6%
- viability, T/C (second compound 0.0949 µM, first compound 0.03 µM): 15.9%
- viability, T/C (second compound 0.0949 µM, first compound 0.0949 µM): 2.85%
- viability, T/C (second compound 0.0949 µM, first compound 0.3 µM): 0.23%
- viability, T/C (second compound 0.3 µM, first compound 0.000949 µM): 21.4%
- viability, T/C (second compound 0.3 µM, first compound 0.003 µM): 18%
- viability, T/C (second compound 0.3 µM, first compound 0.00949 µM): 11.6%
- viability, T/C (second compound 0.3 µM, first compound 0.03 µM): 3.8%
- viability, T/C (second compound 0.3 µM, first compound 0.0949 µM): 0.31%
- viability, T/C (second compound 0.3 µM, first compound 0.3 µM): 0.12%
- viability, T/C (second compound 0.949 µM, first compound 0.000949 µM): 7.25%
- viability, T/C (second compound 0.949 µM, first compound 0.003 µM): 5.2%
- viability, T/C (second compound 0.949 µM, first compound 0.00949 µM): 2.01%
- viability, T/C (second compound 0.949 µM, first compound 0.03 µM): 0.49%
- viability, T/C (second compound 0.949 µM, first compound 0.0949 µM): 0.03%
- viability, T/C (second compound 0.949 µM, first compound 0.3 µM): 0.14%
- viability, T/C (second compound 3 µM, first compound 0.000949 µM): 2.04%
- viability, T/C (second compound 3 µM, first compound 0.003 µM): 1.1%
- viability, T/C (second compound 3 µM, first compound 0.00949 µM): 0.3%
- viability, T/C (second compound 3 µM, first compound 0.03 µM): 0.2%
- viability, T/C (second compound 3 µM, first compound 0.0949 µM): 0.16%
- viability, T/C (second compound 3 µM, first compound 0.3 µM): 0.26%

Structure (SMILES): NC1CCC(NC2CC2c2ccccc2)CC1 (stereo not given) + CCN1C(C(=O)NC23CCC(C(=O)O)(CC2)CC3)C(c2cccc(Cl)c2F)C2(C(=O)Nc3cc(Cl)ccc32)C12CCCCC2
- IC50 (second compound 0.03 µM): > 100 nM
- IC50 (second compound 0.0949 µM): 2.07 nM
- IC50 (second compound 0.3 µM): < 0.316 nM
- IC50 (second compound 0.949 µM): < 0.316 nM
- IC50 (second compound 3 µM): < 0.316 nM
- viability, T/C (second compound 0.03 µM, first compound 0.000316 µM): 61.3%
- viability, T/C (second compound 0.03 µM, first compound 0.001 µM): 64%
- viability, T/C [1]: 58.6%
- viability, T/C [2]: 59.8%
- viability, T/C [3]: 55.8%
- viability, T/C [4]: 57%
- viability, T/C (second compound 0.0949 µM, first compound 0.000316 µM): 51.2%
- viability, T/C (second compound 0.0949 µM, first compound 0.001 µM): 51.1%
- viability, T/C [5]: 49.1%
- viability, T/C [6]: 47.7%
- viability, T/C [7]: 51.1%
- viability, T/C [8]: 44.3%
- viability, T/C (second compound 0.3 µM, first compound 0.000316 µM): 27.9%
- viability, T/C (second compound 0.3 µM, first compound 0.001 µM): 24.9%
- viability, T/C [9]: 26.9%
- viability, T/C [10]: 23.3%
- viability, T/C [11]: 25.6%
- viability, T/C [12]: 27%
- viability, T/C (second compound 0.949 µM, first compound 0.000316 µM): 8.22%
- viability, T/C (second compound 0.949 µM, first compound 0.001 µM): 6.71%
- viability, T/C [13]: 6.88%
- viability, T/C [14]: 6.14%
- viability, T/C [15]: 7.47%
- viability, T/C [16]: 6.92%
- viability, T/C (second compound 3 µM, first compound 0.000316 µM): 1.71%
- viability, T/C (second compound 3 µM, first compound 0.001 µM): 1.81%
- viability, T/C [17]: 1.94%
- viability, T/C [18]: 1.61%
- viability, T/C [19]: 1.43%
- viability, T/C [20]: 2.12%
